These results are taken from patent US7052850B2, “Isolated human EDG-4 receptor” (priority 1997, dated 2006).

The assay deals with pcDNA3-transfected 293-EBNA cells. The experiment in a line: SRE luciferase reporter in 293-EBNA cells, empty vector pcDNA3. The assay is classed as cell-based. Particulars: for SRE reporter response: Assay 3, 3 μM. Here is the method:
The protocol described in Example 11 for Assay 1 was allowed except for the following changes: • 1) 100 mm plates of 293-EBNA ith a confluency of ˜80% were used for transfection, • 2) SRE Cotransfection: 0.5 μg of 2XSREtk-p4Luc-zeo reporter DNA and 3.5 μg pcDNA3, EDG-1, EDG-3 pC3-hE3P2, different from the clone used in Assay 2 of Example 11) or the newly cloned human EDG-4 (pC3-hedg4#36); NF-κB Cotransfection: 2 μg 6XNFκBtk-p4LUc-zeo reporter DNA and 2.0 μg pcDNA3, EDG-1, EDG-3 (pC3-hE3HP2), or EDG-4 (pC3-hedg4#36). Expression plasmid and reporter plasmid DNA samples were combined and diluted in 750 μl of DMEM/F12 (serum free media) and 20 μl Plus Reagent (Lipofectamine Plus Kit, Life Technologies Cat. 109640-13), and incubated at room temperature for 15 min. • 3) 30 μl Lipofectamine Reagent (Lipofectamine Plus Kit) was diluted in 750 μl DMEM/F12. The diluted Lipofectamine was then combined with the DNA/Plus mixture and incubated at room temperature for 15 min. • 4) The 293-EBNA plates were washed once with PBS and 5 ml DMEM/F12 was added to each plate. • 5) DNA/Plus/Lipofectamine mixture was added to each plate of 293-EBNA cells. The plates were left for 3 hr at 37° C. in a 5% CO2 incubator. • 6) The transfection medium was replaced with serum-free DMEM/F12 for cells transfected with 2XSREtk-p4Luc-zeo reporter DNA and with DMEM/F12 plus 10% FBS for cells transfected with 6XNFκBtk-p4Luc-zeo reporter DNA. • Day 2. • 2) Transfected cells were harvested by trypsinization and 50,000 cells per well were plated in 96-well Blackview plates coated with poly D-lysine Becton Dickinson Labware, Cat. 40640). No cells were plated in the outside wells of the 96-well plate. • Day 3. • 1) Media for cells transfected with 6XNF-κBtk-p4Luc-zeo reporter DNA was replaced with DMEM/F12 plus 0.5% FBS. • Day 4. • 1) Media was removed and cells treated with compounds diluted in DMEM/F12 media. The following treatments were used for all transfections:
Transfection was accomplished using the Lipofectamine Plus kit (Life Technologies, Cat. 10964-013), using the manufacturer's recommended conditions. Optimal SRE induction was seen when cells were seeded so as to become 100% confluent at the time of treatment, 72–96 hr after transfection.
293-EBNA cells were grown, lipofected in monolayer cultures, and pretreated as described above for Example 11, assay #1, except that NF-κB and AP-1 reporter-transfected cells were preteated for 6 hr in medium containing 0.5% […], then treated overnight in the same medium with or without 10 μM LPA.
(A reporter such as luciferase makes a cellular process visible.)

lysophosphatidic acid [LPA]: the “endogenous SRE reporter response vs untreated control cells” value (pcDNA3, 10 μM LPA) was “about 1.5 fold”.

Turning to `CCCCCCCCCCCCC/C=C/[C@@H](O)[C@@H](N)COP(=O)([O-])OCC[N+](C)(C)C` [SPC, sphingosylphosphorylcholine], under “pcDNA3 control”, the SRE reporter response entry is recorded as “not”. The “induction of the SRE reporter” value (Example 15A, pcDNA3 control, 3 μM SPC, 6 hr) is “about 2.5 fold”.

Regarding `CCCCCCCCCCCCC/C=C/[C@@H](O)[C@@H](N)COP(=O)(O)O` [S1P, sphingosine 1-phosphate], the SRE reporter response entry (pcDNA3 control) is listed as “about 1.5 fold”.
